Consider eleven compounds from paper PMC8745330, “Aromatic Sulfonamides including a Sulfonic Acid Tail: New Membrane Impermeant Carbonic Anhydrase Inhibitors for Targeting Selectively the Cancer-Associated Isoforms” (International Journal of Molecular Sciences, 2021).

Where a name gives a salt, the structure may show the parent alone.

One data set addresses T1, hCA I (Homo sapiens, UniProt P00915).
T1 construct: made in house
The data set can be described thus: stopped flow CO2 hydrase assay, CA I. It counts as biochemical. Particulars: mean from 3 different assays, errors ±5–10%. How it is done: (§1) An Applied Photophysics stopped-flow instrument was used for assaying the CA catalyzed CO2 hydration activity. Phenol red (at a concentration of 0.2 mM) was used as an indicator, working at the absorbance maximum of 557 nm, with 20 mM HEPES (pH 7.5) as buffer, and 20 mM Na2SO4 (for maintaining constant the ionic strength), following the initial rates of the CA-catalyzed CO2 hydration reaction for a period of 10–100 s. The CO2 concentrations ranged from 1.7 to 17 mM for the determination of the kinetic parameters and inhibition constants. For each inhibitor, at least six traces of the initial 5–10% of the reaction were used for determining the initial velocity. The uncatalyzed rates were determined in the same manner and subtracted from the total observed rates. Stock solutions of inhibitor (0.1 mM) were prepared in distilled–deionized water, and dilutions up to 0.01 nM were done thereafter with the assay buffer. Inhibitor and enzyme solutions were preincubated together for 45 min at room temperature prior to assay in order to allow for the formation of the E–I complex. The inhibition constants were obtained by non-linear least-squares methods using PRISM 3 and the Cheng–Prusoff equation, as reported earlier, representing the mean from at least three different determinations. […] All CA isoforms were recombinant ones obtained in-house, as reported earlier.

In the next data set the target is T2, hCA II (Homo sapiens, UniProt P00918).
T2 construct: made in house
The data set can be described thus: stopped flow CO2 hydrase assay, CA II. It counts as biochemical. The conditions noted are these: mean from 3 different assays, errors ±5–10%. How it is done: as §1

A further data set concerns the target T3, hCA IV (Homo sapiens, UniProt P22748).
T3 construct: made in house
The data set can be described thus: stopped flow CO2 hydrase assay, CA IV. Format: biochemical. Particulars: mean from 3 different assays, errors ±5–10%. How it is done: as §1

In a further data set the target is T4, hCA IX (Homo sapiens, UniProt Q16790).
T4 construct: made in house
The data set can be described thus: stopped flow CO2 hydrase assay, CA IX. It counts as biochemical. Particulars: for Selectivity index (SI) CA II/CA IX / Selectivity index (SI) CA I/CA IX: ratio between KI values; for Ki: stopped flow CO2 hydrase assay, mean from 3 different assays, errors ±5–10%. Here is the method:
as §1

The target of a further data set is T5, hCA XII (Homo sapiens, UniProt O43570).
T5 construct: made in house
T5 sequence (O43570 25-354): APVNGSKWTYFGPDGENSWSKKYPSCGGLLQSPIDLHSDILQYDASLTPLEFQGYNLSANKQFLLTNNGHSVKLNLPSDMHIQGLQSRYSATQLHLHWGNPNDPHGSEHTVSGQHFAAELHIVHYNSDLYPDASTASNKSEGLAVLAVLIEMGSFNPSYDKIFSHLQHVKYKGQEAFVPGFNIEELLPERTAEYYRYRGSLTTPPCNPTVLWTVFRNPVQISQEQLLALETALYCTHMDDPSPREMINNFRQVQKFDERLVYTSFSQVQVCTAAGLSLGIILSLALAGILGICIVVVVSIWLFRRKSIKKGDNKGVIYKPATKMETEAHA
Briefly: stopped flow CO2 hydrase assay, CA XII. It counts as biochemical. Particulars: for Selectivity index (SI) CA II/CA XII / Selectivity index (SI) CA I/CA XII: ratio between KI values; for Ki: stopped flow CO2 hydrase assay, mean from 3 different assays, errors ±5–10%. Here is the method: as §1

T1 sequence (P00915 whole entry): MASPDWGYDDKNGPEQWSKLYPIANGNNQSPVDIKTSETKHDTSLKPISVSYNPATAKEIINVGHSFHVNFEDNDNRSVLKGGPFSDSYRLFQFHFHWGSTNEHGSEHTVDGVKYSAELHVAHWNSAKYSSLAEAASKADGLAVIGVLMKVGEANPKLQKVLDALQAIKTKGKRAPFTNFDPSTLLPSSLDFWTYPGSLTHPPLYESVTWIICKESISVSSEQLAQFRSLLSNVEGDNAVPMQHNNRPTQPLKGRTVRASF
T3 sequence (P22748 19-312): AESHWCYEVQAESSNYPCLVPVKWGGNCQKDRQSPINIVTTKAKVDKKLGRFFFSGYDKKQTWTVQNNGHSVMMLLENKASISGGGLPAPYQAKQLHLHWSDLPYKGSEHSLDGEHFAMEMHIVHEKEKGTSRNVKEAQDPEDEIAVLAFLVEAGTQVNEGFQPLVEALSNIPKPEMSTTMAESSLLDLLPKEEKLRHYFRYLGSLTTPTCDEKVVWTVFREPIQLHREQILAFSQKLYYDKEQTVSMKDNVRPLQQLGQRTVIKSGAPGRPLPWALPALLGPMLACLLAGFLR

A word on the melting point: it is the temperature of the solid-liquid transition. Take `CC(=O)Nc1cc(S(N)(=O)=O)ccc1OCc1cn(CCCCS(=O)(=O)O)nn1` (as salt: sodium) [Compound 50]: the melting point was > 300 °C.

Take `CCC(=O)Nc1cc(S(N)(=O)=O)ccc1OCc1cn(CCCCS(=O)(=O)O)nn1` (as salt: sodium) [Compound 51]: the melting point was > 300 °C.

As a reminder, the Ki is a dissociation constant, usually derived from enzyme kinetics or from competition with a known ligand. Turning to `CC(=O)Nc1cc(S(N)(=O)=O)ccc1OCc1cn(CCCCS(=O)(=O)O)nn1` [Compound 50], the inhibition constant Ki on hCA I is 7690 nM; at hCA II it was 263 nM; on hCA IV it was 3560 nM; at hCA IX it was 82.5 nM; on hCA XII, 40.6 nM. Besides, the “Selectivity index (SI) CA II/CA IX” value on hCA IX is 3.2. In addition, the “Selectivity index (SI) CA II/CA XII” value at hCA XII is given as 6.5.

Regarding `CCC(=O)Nc1cc(S(N)(=O)=O)ccc1OCc1cn(CCCCS(=O)(=O)O)nn1` [Compound 51], the Ki is 3650 nM at hCA I; 39.9 nM at hCA II; > 10000 nM on hCA IV; 236 nM on hCA IX; 7.3 nM at hCA XII.

For “Sodium 3-(4-((3-(4-sulfamoylbenzyl)ureido)methyl)-1H-1,2,3-triazol-1-yl)butane-1-sulfonate [Compound 46]”, the inhibitory constant (Ki) on hCA I was 651 nM; on hCA II, 332 nM; on hCA IV, 636 nM; at hCA IX, 133 nM; on hCA XII it was 31.3 nM.

With “Sodium 3-(4-((3-(4-sulfamoylphenethyl)ureido)methyl)-1H-1,2,3-triazol-1-yl)butane-1-sulfonate [Compound 47]”, the Ki was determined as 82.3 nM on hCA I; 41.3 nM on hCA II; 473 nM at hCA IV; 68.1 nM at hCA IX; 64 nM at hCA XII.

Take “Sodium 3-(4-((3-(4-sulfamoylphenyl)thioureido)methyl)-1H-1,2,3-triazol-1-yl)butane-1-sulfonate [Compound 48]”: the Ki at hCA I turned out to be 62.4 nM; on hCA II, 5.8 nM; on hCA IV, 557 nM; on hCA IX, 8.8 nM; on hCA XII, 31.5 nM.

At hCA I, “Sodium 3-(4-((3-(4-sulfamoylphenyl)ureido)methyl)-1H-1,2,3-triazol-1-yl)butane-1-sulfonate [Compound 45]” gave a Ki of 496 nM. The same compound displayed a Ki at hCA II of 41.1 nM. This compound had a Ki on hCA IV of 150 nM. Further, at hCA IX, the “Selectivity index (SI) CA I/CA IX” value came out at 1.3, the “Selectivity index (SI) CA II/CA IX” value is 0.11 and the Ki is 372 nM. Besides, at hCA XII, the “Selectivity index (SI) CA I/CA XII” value is given as 14; the “Selectivity index (SI) CA II/CA XII” value is on record as 1.2; the affinity, expressed as Ki, was 33.6 nM.

“Sodium 3-(4-((4-(3-(4-sulfamoylphenyl)ureido)phenoxy)methyl)-1H-1,2,3-triazol-1-yl)butane-1-sulfonate [Compound 49]”: the Ki at hCA I is 91.9 nM; at hCA II, 18.8 nM; at hCA IV, 4540 nM; on hCA IX it was 32.2 nM; at hCA XII, 53.2 nM.

As for “Sodium 3-(4-((4-sulfamoylbenzamido)methyl)-1H-1,2,3-triazol-1-yl)butane-1-sulfonate [Compound 44]”, at hCA I, the Ki came out at 168 nM. At hCA II, this compound yielded a Ki of 22.5 nM. The same compound yielded a Ki on hCA IV of 651 nM. For the same compound, at hCA IX, the “Selectivity index (SI) CA I/CA IX” value was 3.3, the “Selectivity index (SI) CA II/CA IX” value worked out at 0.44 and the Ki was found to be 50.7 nM. At hCA XII, the “Selectivity index (SI) CA I/CA XII” value stood at 5.2, the “Selectivity index (SI) CA II/CA XII” value stood at 0.70 and the Ki is 32.2 nM.

Consider “Sodium 3-(4-((4-sulfamoylphenoxy)methyl)-1H-1,2,3-triazol-1-yl)butane-1-sulfonate [Compound 42]”, for which the Ki is 96.8 nM on hCA I; 29.5 nM on hCA II; 750 nM on hCA IV; 60.2 nM at hCA IX; 23.1 nM on hCA XII. Besides, the “Selectivity index (SI) CA I/CA IX” value on hCA IX worked out at 1.6. Further, on hCA IX, the “Selectivity index (SI) CA II/CA IX” value was found to be 0.49. Also, the “Selectivity index (SI) CA I/CA XII” value on hCA XII stood at 4.1. Also, at hCA XII, the “Selectivity index (SI) CA II/CA XII” value is recorded as 1.2.
